Values quoted from earlier work in patent publication USRE30496E, “Tripeptide derivatives with central nervous system activity and preparation thereof” (Ayerst, McKenna & Harrison, Ltd., priority 1979, dated 1981).

Assays:
[1] = tested on: behavioral effects of (3,4-dihydroxyphenyl)-L-alanine (L-DOPA); conditions: literature (Plotnikoff 1971; Friedman 1973)
effects of oxotremorine = conditions: literature (Plotnikoff 1972)
mice = conditions: literature (Plotnikoff 1973)
monkeys = conditions: literature (Plotnikoff 1973)
[2] = in vivo

first step in the inactivation [2]: proteolytic cleavage of the Pro-Leu bond
Substance: H-L-prolyl-L-leucyl-glycinamide [H--Pro--Leu--Gly--NH2]
potentiation of the behavioral effects of L-DOPA [1]: potentiates the behavioral effects | antagonism of the effects of oxotremorine (effects of oxotremorine): antagonizes the effects of oxotremorine | reversal of the sedative effects of deserpidine (mice): reverses the sedative effects of deserpidine | reversal of the sedative effects of deserpidine (monkeys): reverses the sedative effects of deserpidine
